Assay results: patent US7084268B1, “Carbapenem compound crystals and interjection preparations” (Eisai Co., Ltd., priority 1999, dated 2006)
Values joined by “and” are separate entries in the source; they are usually repeats but may differ in a detail not shown here. Equal entries are not always repeated. Structures can show the parent of a compound that is named as a salt.

What was measured:
Type in all cases: physicochemical
[1] = Storage of crystals in bottles without caps at various relative humidity, with or without oxygen absorbent; conditions: for water content (hygroscopicity): 25° C., 2 weeks, listed as monohydrate crystals, monohydrochloride monohydrate
Experimental: The novel carbapenem hydrochloride crystals were weighed in 25 mL wide-mouthed glass bottles (30 mg/bottle), and in the bottles without caps, the monohydrate was stored for 1 week at 40° C. at a relative humidity of 0%, 19.2%, 53% and 75%, and the trihydrate was stored for 2 weeks at 25° C. at a relative humidity of 11%, 33%, 51%, 75% and 93%. Then, the crystals were measured for their color difference (ΔE), water content, powdery X-ray diffraction pattern, and content of residual carbapenem. The monohydrate was also examined in the presence or absence of an oxygen absorbent (trade name: Ageless, produced by Mitsubishi Gas Chemical Co., Ltd.) during storage at each relative humidity. The oxygen absorbent makes oxygen-free conditions under which the preparation is placed.

[2] = Effect of degasification of the air in a vial and/or replacement by nitrogen (storage of powdery charged preparations); conditions: for HPLC impurity, mean / content of residual carbapenem compound, mean: N=3
Experimental: As the monohydrate crystals, the powdery charged preparation of the novel carbapenem hydrochloride crystals (25 mg/vial) obtained in the method in Example 2-3 (replacement by nitrogen), the powdery charged preparation (25 mg/vial) subjected to replacement by oxygen in place of replacement by nitrogen in Example 2-3, and the powdery charged preparation (25 mg/vial) not subjected to replacement in Example 2-2 were stored at 60° C. for 5 days (N=3) and then measured for their color difference (ΔE), water content, powdery x-ray diffraction pattern, content of residual carbapenem and HPLC impurities. As the trihydrate crystals, the powdery charged preparation of the novel carbapenem hydrochloride crystals (25 mg/vial) obtained by the method (replacement by nitrogen) in Example 1-9 and the powdery charged preparation (25 mg/vial) not subjected to replacement in Example 1-8 were stored at 40° C. for 1 month and then measured for their color difference (ΔE), water content and content of residual carbapenem. The color difference was evaluated by a color difference meter (ZE-200, Nippondenso Co., Ltd.); the water content by a Karl-Fisher moisture meter (CA-05, Mitsubishi Kagaku Kogyo); the powdery X-ray diffraction under the method and conditions in Example 1-1 or 2-1; and the content of residual carbapenem and HPLC impurities by high performance liquid chromatography (Shimadzu Corporation). The color difference (ΔE) is a parameter indicative of a change in the color of the outward appearance of crystals, and its higher value indicates a greater coloration change than at an initial stage (just after production).

[3] = Storage of crystals in bottles without caps at various relative humidity, with or without oxygen absorbent; conditions: 25° C., 2 weeks, listed as monohydrate crystals, monohydrochloride monohydrate
[4] = Color difference after degasification of vial at various pressures and replacement by nitrogen; conditions: 60° C., n = 6
Experimental: As the monohydrate, the powdery charged preparations for injection of the novel carbapenem crystals (25 mg/vial) obtained by degasification of the air in the vial at 100, 10, 1, 0.1 and 0.01 hPa (hectopascal) respectively and subsequent replacement by nitrogen according to the method in Example 2-3 (replacement by nitrogen) were stored at 60° C. for 1 or 4 weeks (N=6) and then measured for their color difference (ΔE). The oxygen concentrations in the preparations in vials degasified at 100, 10, 1, 0.1, 0.01 hPa (hectopascal) were measured by an oxygen analyzer (RO-101, Iizima Kogyo). As the trihydrate, the powdery charged preparations of the novel carbapenem hydrochloride crystals (25 mg/vial) obtained in the method in Example 1-9 (replacement by nitrogen) were degasified in the same manner, stored at 80° C. for 1 week (N=6) and then measured for their color difference (ΔE). As the control, the powdery charged preparation of the novel carbapenem hydrochloride crystals (25 mg/vial) subjected to neither degasification nor replacement by nitrogen was used.

[5] = 40° C., 1 week, relative humidity 0%, oxygen absorbent absence
[6] = 40° C., 1 week, relative humidity 0%, oxygen absorbent presence
[7] = 40° C., 1 week, relative humidity 19.2%, oxygen absorbent absence
[8] = 40° C., 1 week, relative humidity 19.2%, oxygen absorbent presence
[9] = 40° C., 1 week, relative humidity 53%, oxygen absorbent absence
[10] = 40° C., 1 week, relative humidity 53%, oxygen absorbent presence
[11] = 40° C., 1 week, relative humidity 75%, oxygen absorbent absence
[12] = 40° C., 1 week, relative humidity 75%, oxygen absorbent presence
[13] = monohydrate crystals, initial stage
[14] = 25 mg/vial, control (air), no replacement, stored 60° C. for 5 days
[15] = 25 mg/vial, control (air), no replacement, stored 60° C. for 5 days, monohydrochloride monohydrate
[16] = 25 mg/vial, gas for replacement nitrogen, stored 60° C. for 5 days
[17] = 25 mg/vial, gas for replacement nitrogen, stored 60° C. for 5 days, monohydrochloride monohydrate
[18] = 25 mg/vial, gas for replacement oxygen, stored 60° C. for 5 days
[19] = 25 mg/vial, gas for replacement oxygen, stored 60° C. for 5 days, monohydrochloride monohydrate
[20] = monohydrate powdery charged preparation, initial stage

water content (hygroscopicity) ([1]; relative humidity 33%): 5.6%
water content (hygroscopicity) ([1]; relative humidity 51%): 5.9%
color difference (ΔE) [1, 5]: 1.87
content of residual carbapenem compound [1, 5]: 101.1%
powdery X-ray diffraction pattern [1, 5]: no change
water content [1, 5]: 5.08%
color difference (ΔE) [1, 6]: 2.95
content of residual carbapenem compound [1, 6]: 100.3%
powdery X-ray diffraction pattern [1, 6]: no change
water content [1, 6]: 5.31%
color difference (ΔE) [1, 7]: 5.01
content of residual carbapenem compound [1, 7]: 99.9%
powdery X-ray diffraction pattern [1, 7]: no change
water content [1, 7]: 6.18%
color difference (ΔE) [1, 8]: 3.97
content of residual carbapenem compound [1, 8]: 100.5%
powdery X-ray diffraction pattern [1, 8]: no change
water content [1, 8]: 5.72%
color difference (ΔE) [1, 9]: 6.28
content of residual carbapenem compound [1, 9]: 100.6%
powdery X-ray diffraction pattern [1, 9]: no change
water content [1, 9]: 6.17%
color difference (ΔE) [1, 10]: 5.85
content of residual carbapenem compound [1, 10]: 102.0%
powdery X-ray diffraction pattern [1, 10]: no change
water content [1, 10]: 6.29%
color difference (ΔE) [1, 11]: 35.98
content of residual carbapenem compound [1, 11]: 99.8%
powdery X-ray diffraction pattern [1, 11]: no change
water content [1, 11]: 6.60%
color difference (ΔE) [1, 12]: 4.56
content of residual carbapenem compound [1, 12]: 100.8%
powdery X-ray diffraction pattern [1, 12]: no change
water content [1, 12]: 6.43%
HPLC impurity [1, 13]: 0.93%
water content [1, 13]: 5.49%
powdery X-ray diffraction pattern [2, 14]: no change
HPLC impurity, mean [2, 14]: 0.63%
content of residual carbapenem compound, mean [2, 14]: 98.40%
HPLC impurity [2, 15]: 0.62% and 0.64%
color difference (ΔE) [2, 15]: 10.48 and 11.21 and 10.41
content of residual carbapenem compound [2, 15]: 98.6% and 98.1%
water content [2, 15]: 5.87% and 5.93%
powdery X-ray diffraction pattern [2, 16]: no change
HPLC impurity, mean [2, 16]: 0.63%
content of residual carbapenem compound, mean [2, 16]: 98.40%
HPLC impurity [2, 17]: 0.63% and 0.64%
color difference (ΔE) [2, 17]: 4.23 and 4.57 and 5.23
water content [2, 17]: 5.80% and 5.78% and 5.77%
powdery X-ray diffraction pattern [2, 18]: no change
HPLC impurity, mean [2, 18]: 0.64%
content of residual carbapenem compound, mean [2, 18]: 97.80%
HPLC impurity [2, 19]: 0.63% and 0.64%
color difference (ΔE) [2, 19]: 12.7 and 12.14 and 11.46
content of residual carbapenem compound [2, 19]: 97.5% and 98.1% and 97.8%
water content [2, 19]: 5.78% and 5.77% and 5.75%
HPLC impurity [2, 20]: 1.03%
water content [2, 20]: 5.99%
water content (hygroscopicity) ([3]; relative humidity 11%): 5.0%
water content (hygroscopicity) ([3]; relative humidity 75%): 6.2%
water content (hygroscopicity) ([3]; relative humidity 93%): 8.4%
color difference (ΔE) ([4]; control: neither degasification nor replacement by nitrogen, 1 week): 7.37
color difference (ΔE) ([4]; control: neither degasification nor replacement by nitrogen, 4 weeks): 14.94
color difference (ΔE) ([4]; vial degasified at 0.01 hPa (oxygen concentration 0.24 ± 0.03%), replaced by nitrogen, 1 week): 3.11
color difference (ΔE) ([4]; vial degasified at 0.01 hPa (oxygen concentration 0.24 ± 0.03%), replaced by nitrogen, 4 weeks): 4.91
color difference (ΔE) ([4]; vial degasified at 0.1 hPa (oxygen concentration 0.21 ± 0.01%), replaced by nitrogen, 1 week): 2.28
color difference (ΔE) ([4]; vial degasified at 0.1 hPa (oxygen concentration 0.21 ± 0.01%), replaced by nitrogen, 4 weeks): 4.98
color difference (ΔE) ([4]; vial degasified at 1 hPa (oxygen concentration 0.24 ± 0.04%), replaced by nitrogen, 1 week): 2.62
color difference (ΔE) ([4]; vial degasified at 1 hPa (oxygen concentration 0.24 ± 0.04%), replaced by nitrogen, 4 weeks): 4.51
color difference (ΔE) ([4]; vial degasified at 10 hPa (oxygen concentration 0.29 ± 0.08%), replaced by nitrogen, 1 week): 2.40
color difference (ΔE) ([4]; vial degasified at 10 hPa (oxygen concentration 0.29 ± 0.08%), replaced by nitrogen, 4 weeks): 5.69
color difference (ΔE) ([4]; vial degasified at 100 hPa (oxygen concentration 3.01 ± 1.12%), replaced by nitrogen, 1 week): 2.85
color difference (ΔE) ([4]; vial degasified at 100 hPa (oxygen concentration 3.01 ± 1.12%), replaced by nitrogen, 4 weeks): 8.02
SMILES: C[C@@H](O)[C@H]1C(=O)N2C(C(=O)O)=C(S[C@@H]3CN[C@H]([C@H](O)[C@@H]4CCNC4)C3)[C@H](C)[C@H]12 [monohydrate, (+)-(1R,5S,6S)-6-[(R)-1-Hydroxyethyl]-1-methyl-2-[(2S,4S)-2-[(3R)-pyrrolidine-3-yl-(R)-hydroxymethyl]pyrrolidine-4-yl]thio-1-carbapen-2-em-3-carboxylic acid monohydrochloride monohydrate]
